Source: US5877166A, “Enantiomerically pure 2-aminopurine phosphonate nucleotide analogs as antiviral agents” (priority 1997, dated 1999)
In brackets after ≈: the same amount, converted by molar mass. Like-named read-outs stand apart in the source and are kept apart here.

Experiments:
HCMV, Strain D-16 = experiment: Antiviral activity (plaque reduction) vs. HCMV, Strain D-16 in MRC-5 cells; type: cell-based, human cytomegalovirus (HCMV); conditions: for TI (therapeutic index, ratio of the median cytotoxic dose to the median effective dose): CD50/ED50, 4320 min; for inhibition at 1 µg/mL / inhibition at 3.2 µg/mL / inhibition at 10 µg/mL / inhibition at 32 µg/mL / inhibition at 100 µg/mL / inhibition at 316 µg/mL: Human betaherpesvirus 5, MRC5, 72 h, read-out: % Reduction (plaques); for EC50: Human betaherpesvirus 5, MRC5, 72 hours, MRC-5 cells, read-out: ED50 (median effective antiviral dose)
in vitro = type: cell-based; conditions: human, mrc-5 cells
Experimental: The herpes strain employed was Strain D-16 of HCMV. Continuous passaged MRC-5 cells obtained from the American Type Culture Collection (Bethesda, Md.) were used for testing, with growth medium consisting of Minimum Essential Medium (MEM) supplemented with 0.1% NaHCO3 and […] gentamicin.
To a 96-well microtiter plate containing an established 24-hour monolayer of cells from which the medium had been decanted was added 0.1 mL of varying (one-half log10) concentration of test compound, which incubated on the cell 15 minutes, after which 0.1 mL of virus in a concentration of 320 cell culture 50% infectious doses (CCID50)/0.1 mL was added. The plate was covered with plastic wrap and incubated at 37° C. The cells were examined microscopically after 72 hours. The ED50 (the median effective antiviral dose, i.e., that dose which is effective in 50% of the cells), CD50 (the median cytotoxic dose, i.e., that dose which produces cytotoxicity in 50% of the cells), and TI (the therapeutic index, meaning the ratio of the median cytotoxic dose to the median effective dose) were evaluated.

murine cytomegalovirus = experiment: Activity against a murine cytomegalovirus infection in normal BALB/c mice; type: in vivo
Experimental: Activities of 1-5 and 1-6
Against a murine cytomegalovirus infection
^a Treatments were given once daily for 5 days starting 24 hours afte

[1] = Toxicity to uninfected BALB/c mice; type: in vivo; conditions: mouse, in vivo, once daily for 15 days, read-out: Survivors (%)
Description: (§1) Toxicity of 1-5 to uninfected BALB/c mice.
(§2) ^a Treatments were given once daily for 15 days.
(§3) ^b Difference in weight (in grams) between day 0 and day 16.

uninfected BALB/c mice = experiment: Toxicity to uninfected BALB/c mice; type: in vivo; conditions: for Kidney Damage (%) / Survivors/Total: once daily for 15 days; for Weight Change: between day 0 and day 16
Description: as §1, §2, §3

[2] = 5 mg/kg/day, once daily for 5 days
[3] = 10 mg/kg/day, once daily for 5 days
[4] = 20 mg/kg/day, once daily for 5 days
[5] = 40 mg/kg/day, once daily for 5 days
[6] = 40 mg/kg/day, once daily for 5 days starting 24 hours after virus challenge

SMILES: Nc1ncc2ncn(CO[C@@H]3CCP(=O)(O)OC3)c2n1 [Compound 1-6]
- Number of Plaques (HCMV, Strain D-16; 1 μg/mL): 51.0
- Number of Plaques (HCMV, Strain D-16; 3.2 μg/mL): 56.0
- Number of Plaques (HCMV, Strain D-16; 10 μg/mL): 33.0
- Number of Plaques (HCMV, Strain D-16; 32 μg/mL): 6.5
- Number of Plaques (HCMV, Strain D-16; 100 μg/mL): 0.0
- Number of Plaques (HCMV, Strain D-16; 316 μg/mL): 0.0
- % Reduction (given as toxic) (HCMV, Strain D-16; 1000 μg/mL): toxic
- Number of Plaques (given as toxic) (HCMV, Strain D-16; 1000 μg/mL): toxic
- TI (therapeutic index, ratio of the median cytotoxic dose to the median effective dose) (HCMV, Strain D-16): 73
- inhibition at 1 µg/mL (HCMV, Strain D-16; 1 μg/mL): 37%
- inhibition at 3.2 µg/mL (HCMV, Strain D-16; 3.2 μg/mL): 31%
- inhibition at 10 µg/mL (HCMV, Strain D-16; 10 μg/mL): 59%
- inhibition at 32 µg/mL (HCMV, Strain D-16; 32 μg/mL): 92%
- inhibition at 100 µg/mL (HCMV, Strain D-16; 100 μg/mL): 100%
- inhibition at 316 µg/mL (HCMV, Strain D-16; 316 μg/mL): 100%
- EC50 (HCMV, Strain D-16): 6.7 µg/mL (≈ 22.4 µM)
- CC50 at 72 h (in vitro): 487 µg/mL (≈ 1630 µM)
- Mean Day to Death (murine cytomegalovirus; [2]): 6.4 ± 0.5 days
- Survivors (%) (murine cytomegalovirus; [2]): 0%
- Survivors/Total (murine cytomegalovirus; [2]): 0/10
- Mean Day to Death (murine cytomegalovirus; [3]): 7.4 ± 2.0 days
- Survivors (%) (murine cytomegalovirus; [3]): 0%
- Survivors/Total (murine cytomegalovirus; [3]): 0/10
- Mean Day to Death (murine cytomegalovirus; [4]): 6.1 ± 0.4 days
- Survivors (%) (murine cytomegalovirus; [4]): 30%
- Survivors/Total (murine cytomegalovirus; [4]): 3/10
- Mean Day to Death (murine cytomegalovirus; [5]): 8.3 ± 4.9 days
- Survivors (%) (murine cytomegalovirus; [5]): 40%
- Survivors/Total (murine cytomegalovirus; [6]): 4/10

SMILES: Nc1nc2c(ncn2COC(CO)CO)c(=O)[nH]1 [DHPG, 9-[(1,3dihydroxy-2-propoxy)methyl] guanine, reference compound]
- Number of Plaques (HCMV, Strain D-16; 1 μg/mL): 69.0
- Number of Plaques (HCMV, Strain D-16; 3.2 μg/mL): 57.0
- Number of Plaques (HCMV, Strain D-16; 10 μg/mL): 24.5
- Number of Plaques (HCMV, Strain D-16; 32 μg/mL): 2.0
- Number of Plaques (HCMV, Strain D-16; 100 μg/mL): 0.0
- Number of Plaques (HCMV, Strain D-16; 316 μg/mL): 0.0
- TI (therapeutic index, ratio of the median cytotoxic dose to the median effective dose) (HCMV, Strain D-16): > 44
- inhibition at 1 µg/mL (HCMV, Strain D-16; 1 μg/mL): 0%
- inhibition at 3.2 µg/mL (HCMV, Strain D-16; 3.2 μg/mL): 0%
- inhibition at 10 µg/mL (HCMV, Strain D-16; 10 μg/mL): 70%
- inhibition at 32 µg/mL (HCMV, Strain D-16; 32 μg/mL): 98%
- inhibition at 100 µg/mL (HCMV, Strain D-16; 100 μg/mL): 100%
- inhibition at 316 µg/mL (HCMV, Strain D-16; 316 μg/mL): 100%
- EC50 (HCMV, Strain D-16): 7.2 µg/mL (≈ 28.2 µM)
- CC50 at 72 h (in vitro): > 316 µg/mL

SMILES: Nc1ncc2ncn(CO[C@@H](CO)CCP(=O)(O)O)c2n1 [Compound 1-5, 2-Amino-9-[(R(-)-1-hydroxymethyl-3-phosphono)-1-propyloxymethyl]-9H-purine]
- Mean Day to Death (murine cytomegalovirus; [2]): 9.6 ± 4.6 days
- Survivors (%) (murine cytomegalovirus; [2]): 50%
- Survivors/Total (murine cytomegalovirus; [2]): 5/10
- Mean Day to Death (murine cytomegalovirus; [3]): 10.0 ± 3.6 days
- Survivors (%) (murine cytomegalovirus; [3]): 70%
- Survivors/Total (murine cytomegalovirus; [3]): 7/10
- Mean Day to Death (murine cytomegalovirus; [4]): 11.5 ± 0.7 days
- Survivors (%) (murine cytomegalovirus; [4]): 80%
- Survivors/Total (murine cytomegalovirus; [4]): 8/10
- Mean Day to Death (murine cytomegalovirus; [5]): > 21 days
- Survivors (%) (murine cytomegalovirus; [5]): 100%
- Survivors/Total (murine cytomegalovirus; [6]): 10/10
- survival ([1]; 100 mg/kg/day): 100%
- survival ([1]; 200 mg/kg/day): 100%
- survival ([1]; 400 mg/kg/day): 100%
- survival ([1]; 600 mg/kg/day): 100%
- Kidney Damage (%) (uninfected BALB/c mice; 100 mg/kg/day): 0%
- Survivors/Total (uninfected BALB/c mice; 100 mg/kg/day): 3/3
- Weight Change (uninfected BALB/c mice; 100 mg/kg/day): +7.0 grams
- Kidney Damage (%) (uninfected BALB/c mice; 200 mg/kg/day): 0%
- Survivors/Total (uninfected BALB/c mice; 200 mg/kg/day): 3/3
- Weight Change (uninfected BALB/c mice; 200 mg/kg/day): +7.8 grams
- Kidney Damage (%) (uninfected BALB/c mice; 400 mg/kg/day): 0%
- Survivors/Total (uninfected BALB/c mice; 400 mg/kg/day): 3/3
- Weight Change (uninfected BALB/c mice; 400 mg/kg/day): +6.6 grams
- Kidney Damage (%) (uninfected BALB/c mice; 600 mg/kg/day): 0%
- Survivors/Total (uninfected BALB/c mice; 600 mg/kg/day): 3/3
- Weight Change (uninfected BALB/c mice; 600 mg/kg/day): +4.5 grams
